Measurements as given in PMC7822874, “Chemoprotective antimalarials identified through quantitative high-throughput screening of Plasmodium blood and liver stage parasites” (Scientific Reports, 2021).

Assay: in vitro
Details: human, hepg2-a16-cd81egfp cells
Note: reference of the scale not given here.

Row | Structure (SMILES) | viability at 3 µM (% viability) | viability at 3 µM
1 | CN(CC(=O)Nc1cccc(F)c1)C(=O)c1ccc(-c2ccc(Cl)cc2)o1 [MLS001078811] | 105% | 
2 | COc1ccc(-n2nc(C(=O)NCC(=O)N3CCN(c4ccccc4OC)CC3)c3ccccc3c2=O)c(OC)c1 [MLS000936211] | 90.4% | 
3 | O=C(CCc1ccccc1)NC(c1cccs1)c1cc(Cl)c2cccnc2c1O (stereo not drawn) [MLS000703748] | 54% | 
4 | COc1ccccc1C1CC(c2ccccc2)=NN1C(=O)c1ccccc1 (stereo not drawn) [MLS001197331] | 96.5% | 
5 | Clc1ccc2c(N/N=C/c3cccc(Br)c3)ccnc2c1 [MLS000336198] | 87.2% | 
6 | CCCc1c(CC)c(=N)c2ccccc2n1C [MLS000080101] | 83.6% | 
7 | O=[N+]([O-])c1ccc(N2CCN(/C(S)=N/C3CCCCC3)CC2)cc1 [MLS000574247] | 99.2% | 
8 | O=C(NC1=C(Nc2ccc(Cl)cc2)C(=O)c2ccccc2C1=O)c1ccccc1 [MLS000375030] | 97.1% | 
9 | COc1ccc2nc(C)cc(NCc3cccc(C(F)(F)F)c3)c2c1 [MLS001174340] | 95.4% | 
10 | Oc1ccc(-c2ccccc2)cc1CN1CCCCCC1 [MLS001195126] | 104% | 
11 | Cc1ccc(S(=O)(=O)N2CCN(/C(S)=N/Cc3ccc4c(c3)OCO4)CC2)cc1 [MLS001002637] | 97.3% | 
12 | CC1(C)Cc2ccccc2C2=NNC(=O)C2=N1 [MLS000709658] | 94.5% | 
13 | Clc1ncnc2scc(-c3ccc(Br)cc3)c12 [MLS000591637] | 99.5% | 
14 | CC(C)c1ccccc1OCC(O)CN(CC(O)COc1cccc2ccccc12)C(C)C (stereo not drawn) [MLS001179995] | 100% | 
15 | Cc1nn2c(c1-c1ccccc1-c1ccccc1)N(CCC(C)C)CCC2 [NCGC00420437] | 15.3% | 
16 | O=C(N/N=C(/c1ccccc1)c1cccnc1)c1cccc(F)c1 [MLS001224623] | 32% | 
17 | O[C@H]1[C@H]2c3cc4c(cc3CN3CCC(=C[C@@H]1O)[C@@H]23)OCO4 [NCGC00262562] | 83.5% | 
18 | CCCCc1cc(=O)oc2cc(C)cc(OCC(=O)Nc3cccnc3)c12 [MLS001160046] | 96.3% | 
19 | CCN(CC)c1ccc(NC(=O)COc2ccccc2C#N)cc1S(=O)(=O)Nc1ccccc1OC [MLS000339599] | 97.1% | 
20 | O=C(Nc1ccc2c(N3CCCCC3)ncnc2c1)c1cc(F)cc(F)c1 [NCGC00425525] | 53.4% | 
21 | Cc1ccc(Nc2cc(C)nc(NCc3ccccc3)n2)cc1 [MLS000574704] | 80.6% | 

Row | Structure (SMILES) | viability at 3 µM (% viability) | viability at 3 µM
22 | FC(F)(F)c1cccc(Nc2nc3nonc3nc2Nc2ccc(Cl)cc2)c1 [NCGC00100377] | 47.1% | 
23 | CCCN(C(=O)C(=O)Nc1ccc2nc3n(c(=O)c2c1)CCCCC3)c1ccc(OCC)cc1 [NCGC00114456] | 93.7% | 
24 | COc1ccc2[nH]c(C)c(CCN(Cc3cccs3)C(S)=Nc3ccccc3)c2c1 [MLS000529828] | 86.8% | 
25 | OC(CNC1CCCc2ccccc21)COc1c(Cl)cccc1Cl (stereo not drawn) [MLS000334339] | 100% | 
26 | c1ccc(-c2cccc(-c3ccccn3)n2)nc1 [MLS000048666] | 19.2% | 
27 | COc1ccc([C@@]2(C(C)C)ON(c3ccccc3C(F)(F)F)C2=O)cc1 [MLS002206606] | 83.8% | 
28 | COc1cc2nc(Nc3cccc(F)c3)nc(N)c2cc1OC [NCGC00107351] | 101% | 
29 | CC(=O)N(C)C1=C(N2CCOCC2)C(=O)c2ccccc2C1=O [MLS000570886] | 96.1% | 
30 | Cc1cc(Nc2cccc(Cl)c2)nc(NCc2ccccc2)n1 [MLS000591844] | 80.9% | 
31 | COc1cc(O)c(C(CCN2CCCCC2)c2ccc(N(C)C)cc2)c(OC)c1 (stereo not drawn) [MLS000879496] | 92.4% | 
32 | O=C1N(c2ccccc2C(F)(F)F)OC1(Cc1ccccc1)c1ccccc1 (stereo not drawn) [MLS002206595] | 85% | 
33 | CCN(CC)CCOC(=O)c1ccc(N/C=C(/C#N)c2nc(-c3cc4ccccc4oc3=O)cs2)cc1 [MLS001164950] | 105% | 
34 | COc1ccc(C)cc1Nc1nc(N)c2cc(OC)c(OC)cc2n1 [NCGC00107383] | 94.9% | 
35 | Cc1ccccc1C1C(C#N)=C2N=C(N)c3c(sc4c3CCCCC4)N2C2=C1C(=O)CCC2 (stereo not drawn) [MLS000543544] | 92.6% | 
36 | O=[S+]([O-])(c1ccc(Cl)cc1)N1CCN(C(=S)Nc2ccc(F)c(Cl)c2)CC1 [NCGC00345140] | 85.6% | 
37 | CCCC(=O)NC(c1ccc(OC)cc1)c1ccc2cccnc2c1O (stereo not drawn) [MLS000715379] | 59.7% | 
38 | O=C1c2ccccc2CCc2ccc(B(O)O)cc21 [NCGC00183917] | 82.4% | 
39 | COc1cc(NC(=O)c2cc([N+](=O)[O-])ccc2NC(=O)CNC2CCCCC2C)cc(OC)c1 (stereo not drawn) [MLS000950459] | 90.2% | 
40 | Oc1c(Cl)cc(Cl)cc1CN1CCN(Cc2ccccc2)CC1 [MLS000106505] |  | 92%
41 | Cc1ccc(-c2cc3c(nn2)-c2ccccc2C3=O)cc1 [MLS000104226] | 76.2% | 
42 | O=C(Nc1ccc(Br)cc1)c1ccc(F)c([S+](=O)([O-])NC2CCCCCC2)c1 [NCGC00139407] | 78.6% | 

Row | Structure (SMILES) | viability at 3 µM (% viability) | viability at 3 µM
43 | C=CCNC(=S)N1CCN(c2ccc([N+](=O)[O-])cc2)CC1 [MLS000581348] | 99.6% | 
44 | Cc1noc(C)c1CSc1nc2sc3c(c2c(=O)n1C)CCCC3 [MLS000564913] | 89.9% | 
45 | O[C@H]1[C@H](NCC2CCCCC2)[C@H]2CO[C@H](O2)[C@@H]1N1CCC(Cc2ccccc2)CC1 [NCGC00394729] | 99.2% | 
46 | CCN1CCN(Cc2ccc(NC(=O)c3ccc(C)c(NC(=O)c4cc(-c5ccc(Br)cc5)[nH]n4)c3)cc2C(F)(F)F)CC1 [MLS000911560] | 99% | 
47 | CCOc1cc(C(=O)N2CCC(CC3CC(c4ccc(Cl)cc4)=NO3)(C(=O)NCC3CCCCC3)CC2)cc(OCC)c1OCC (stereo not drawn) [MLS001143937] | 93.2% | 
48 | CCOC(=O)c1c(CN(C)C)n(-c2ccc(C)cc2)c2cc(Br)c(O)cc12 [MLS000705141] | 97.3% | 
49 | O=C1C(=O)c2ncccc2-c2cccnc21 [NCGC00160369] | 24.2% | 
50 | O=C(CSc1nc(Nc2ccccc2)nc(N2CCOCC2)n1)Nc1cc(Cl)ccc1O [MLS001035450] | 85.3% | 
51 | Cc1ccc(Nc2cc(C)c3ccc(O)cc3n2)cc1C [MLS000674791] | 92.2% | 
52 | COc1ccc(Nc2cc(O)c3ncccc3c2)cc1 [NCGC00183797] | 69% | 
53 | CCN(CC)CCOC(=O)c1ccc(N/C=C(/C#N)c2nc(-c3ccc4c(c3)OCO4)cs2)cc1 [MLS000769346] | 100% | 
54 | C=C(C)COc1ccc(-c2n[nH]cc2-c2ccc(OC)c(OC)c2)c(O)c1 [MLS000084580] | 42.4% | 
55 | COc1ccc(Nc2cc(C)nc(NCc3ccccc3)n2)cc1 [MLS000768693] | 83% | 
56 | CCN(CC)CCN1C(=O)c2ccccc2NC1c1ccc(Br)cc1 (stereo not drawn) [MLS000723891] | 87.8% | 
57 | COc1cc(Cl)c(NC2=CC(=O)C(=O)c3ccccc32)c(OC)c1 [MLS001360325] | 65.1% | 
58 | O=C(Nc1nc(-c2ccccn2)cs1)c1cccc(-n2cnnn2)c1 [MLS000770597] | 63.7% | 
59 | Cc1cc(N2CCC(C)CC2)nc(-n2nc(C)cc2C)n1 [MLS000109839] | 98.6% | 
60 | Cc1ccc(O)c(-c2cc(C(=O)Nc3ccc(S(=O)(=O)N4CC(C)OC(C)C4)cc3)n[nH]2)c1 (stereo not drawn) [MLS000042695] | 87.1% | 
61 | COc1cccc(-c2c(C#N)c(N)nc3c2c(C)nn3-c2ccccc2)c1O [MLS001214341] | 90.5% | 
62 | Clc1ccc(NNc2ccnc3cc(Cl)ccc23)cc1 [MLS000537447] | 90.3% | 
63 | COc1cc2nc(Nc3ccc(C)c(C)c3)nc(N)c2cc1OC [MLS001199689] | 102% | 

Row | Structure (SMILES) | viability at 3 µM (% viability) | viability at 3 µM
64 | CCCCOc1ccc(NC2=NC(N)=NC3(CCCCC3)N2)cc1 [MLS000109806] | 88.4% | 
65 | O=C(CCl)Nc1cccc(-c2cnc3ccccc3n2)c1 [MLS000541295] | 88.6% | 
66 | N#Cc1cc(C#N)c(N2CCN(c3cccc(Cl)n3)CC2)nc1N [MLS000325470] | 99.6% | 
67 | CC(C)(C)OC(=O)N1CCC(CC2CC(c3ccccc3)=NO2)(C(=O)NCc2ccccc2)CC1 (stereo not drawn) [MLS002174287] | 99.3% | 
68 | O[C@@H]1[C@@H](O)C=C2CCN3Cc4cc5c(cc4[C@H]1C23)OCO5 (stereo partly drawn) [MLS002153955] | 77.4% | 
69 | O=C(Nc1ncccc1O)c1ccc(S(=O)(=O)Nc2ccccc2)cc1 [MLS001099437] | 94.2% | 
70 | Oc1cccc(Nc2nc(NCC3CCCO3)c3ccccc3n2)c1 (stereo not drawn) [MLS000026845] | 95.5% | 
71 | CCNc1nc(C#N)nc2c1ncn2-c1cc(F)cc(F)c1 [MLS002471787] | 99.9% | 
72 | Oc1cc(/C=C/c2c(F)cccc2Cl)nc2ccccc12 [MLS000862522] | 102% | 
73 | Cc1cc(OC(C)C(=O)NCCc2c[nH]c3ccccc23)c2c(C)cc(=O)oc2c1 (stereo not drawn) [MLS001158613] | 92.7% | 
74 | COc1cc2nc(SCc3ccc(F)cc3)n3nc(CCn4c(C)nc5ccccc54)nc3c2cc1OC [NCGC00108638] | 107% | 
75 | Cc1nnsc1[S+]([O-])c1ccc(Cl)cc1 (stereo not drawn) [MLS001166465] | 96.9% | 
76 | CCOc1ccc(-n2c(SCC(N)=O)nc3sc4c(c3c2=O)CCN(C)C4)cc1 [MLS000332254] | 95.7% | 
77 | Cc1ccc(Sc2ccc(NC(=O)CCl)cc2)cc1C [MLS000334846] | 93.9% | 
78 | O=C(NCc1ccccc1)c1onc(CSc2nc3ccccc3[nH]2)c1C(=O)NCc1ccccc1 [MLS000561090] | 105% | 
79 | CCCCN(CC)CCNC(=O)c1cc2c(-c3ccc(Cl)cc3)nn(C)c2s1 [MLS001199341] | 90.6% | 
80 | CCOc1ccc(Nc2cc(=O)oc3ccccc23)cc1 [MLS000519261] | 103% | 
81 | Cc1cc(O)c(-c2cc(C(=O)Nc3ccc(S(=O)(=O)N4CCOCC4)cc3)[nH]n2)cc1C [MLS000042703] | 93.1% | 
82 | CCOc1ccccc1NC(C)C(=O)Nc1cc(C(F)(F)F)ccc1N1CCOCC1 (stereo not drawn) [MLS000336343] | 99.6% | 
83 | O=C(Nc1ccc(N2CCN(c3ncccc3C(F)(F)F)CC2)nc1)c1cccs1 [MLS000862045] | 92% | 
84 | CCN1CCN(Cc2ccc(NC(=O)c3cc(NC(=O)c4cc5cccc(OC)c5o4)cc(OC)c3)cc2C(F)(F)F)CC1 [MLS000911573] | 94.8% | 
